Values joined by “and” are separate entries in the source; they are usually repeats but may differ in a detail not shown here. Equal entries are not always repeated.
Experiments:
[1] = system: β-adrenergic receptors, guinea pig trachea vs right atria; assay: Cardioselectivity, KB trachea/KB atria; format: cell-based; conditions: 10^(pA2 atria-pA2 trachea); ratio greater than one indicates cardioselectivity
Experimental: Each tissue was suspended between a fixed glass rod and a Statham Universal Transducer connected to a Beckman recorder. Atria were allowed to beat spontaneously under a loading tension of approximately 0.5 gm. Intrinsic depressant or stimulant activity was determined for each compound by progressively increasing concentrations in the tissue baths at 60-minute intervals. Tissues were not washed between increments. The maximum concentration showing little or no cardiodepressant activity was chosen for blockade experiments. Changes in rate in response to isoproterenol, a standard β-receptor agonist, were measured in the absence and presence of test compounds. Spiral strips of guinea pig trachea were suspended under 5 gm resting tension and incubated with phentolamine, tropolone and cocaine. Active tension was generated by addition of carbachol (3.0×10^-7 M) and decreases in tension in response to isoproterenol were quantitated. Cumulative concentration-response curves were produced with isoproterenol both before and after 60-minute incubation of test compounds with atria and trachea. […] The degree of cardioselectivity was estimated from the ratio, KB trachea/KB atria (10^(pA2 atria-pA2 trachea)). A ratio greater than one indicates cardioselectivity. Test drugs were dissolved in distilled water and added to the bath (30 ml) in a volume of 10 or 100 μl.

[2] = Enzymatic hydrolysis by dog liver homogenate (procedure C); format: in vitro ADME; conditions: for remaining at 1 h / remaining at 2 h / half-life: dog, liver homogenate; for remaining at 1 h / remaining at 2 h: 37° C., procedure C; for remaining at 1 h: read-out: % Drug remaining, 1 HR, dog liver homogenate; for remaining at 2 h: read-out: % Drug remaining, 2 HR, dog liver homogenate; for half-life: approximate value, determined by procedure C, read-out: T1/2 dog liver homogenate
Source text: Chemicals--Acetonitrile was "HPLC" grade. Distilled water was used to dissolve the compounds and 0.01 N HCl was used to dissolve compounds requiring an acidic pH for dissolution. Enzyme Source--Fresh aqueous humor was collected from eyes of dogs using a 23-gauge needle while fresh dog blood was collected into heparinized Vacutainer tubes. Fresh liver was homogenized in 0.9% NaCl using a Potter-Elvehjem Teflon pestle and glass homogenizer to make a 25% (W/V) homogenate. […] Denatured tissue controls were prepared by adding 2.0 ml of acetonitrile into 0.5 ml of aqueous humor, blood, or liver homogenate to destroy esterase activities prior to addition of the β-blockers. These controls were then incubated at 37° C. for 120 min. […] Sample Processing and Data Analyses--All samples were centrifuged at 4000 RPM for 10 min to sediment denatured proteins. The resultant supernatants were transferred to WISP.cndot. vials and analyzed using an HPLC assay developed for beta blockers. The hydrolysis of β-blockers by aqueous humor, blood, and liver homogenate was determined by disappearance of the compounds. The extent of enzymatic hydrolysis by each tissue was determined by comparing the amount of each compound (absolute peak area) recovered at each time point to the amount of each compound (absolute peak area) in denatured tissue control and aqueous control samples.

[3] = target: β1 receptors, guinea pig right atria (Cavia porcellus, UniProt H0W3H1); assay: cell-based; conditions: Table I; guinea pig right atria, vs isoproterenol; -log KB; read-out: PA2 Rt. Atria (converted)
Experimental: Each tissue was suspended between a fixed glass rod and a Statham Universal Transducer connected to a Beckman recorder. Atria were allowed to beat spontaneously under a loading tension of approximately 0.5 gm. Intrinsic depressant or stimulant activity was determined for each compound by progressively increasing concentrations in the tissue baths at 60-minute intervals. Tissues were not washed between increments. The maximum concentration showing little or no cardiodepressant activity was chosen for blockade experiments. Changes in rate in response to isoproterenol, a standard β-receptor agonist, were measured in the absence and presence of test compounds. Spiral strips of guinea pig trachea were suspended under 5 gm resting tension and incubated with phentolamine, tropolone and cocaine. Active tension was generated by addition of carbachol (3.0×10^-7 M) and decreases in tension in response to isoproterenol were quantitated. Cumulative concentration-response curves were produced with isoproterenol both before and after 60-minute incubation of test compounds with atria and trachea. […] The blocking potency of test compounds was estimated by computing pA2 values (-log KB) by the method of Furchgott, the Pharmacological Differentiation of Adrenergic Receptors, Ann. […] The degree of cardioselectivity was estimated from the ratio, KB trachea/KB atria (10^(pA2 atria-pA2 trachea)). A ratio greater than one indicates cardioselectivity. Test drugs were dissolved in distilled water and added to the bath (30 ml) in a volume of 10 or 100 μl.

[4] = system: heart rate response to isoproterenol; assay: Duration and potency of beta-blocking action in vivo, 3-hour infusion in anesthetized dogs, isoproterenol challenge; design: species or system dog; conditions: Table II; for Recovery Time 50%: 50% recovery from β-blockade after termination of infusion; for Recovery Time 80%: 80% recovery from β-blockade after termination of infusion; for % I, percent inhibition of heart rate response to isoproterenol: end of 3-hour infusion, isoproterenol 0.5 μg/kg
Experimental: The duration of β-blockade was determined In vivo using pentobarbital-anesthetized dogs instrumented for measurement of heart rate using a Beckman cardiotachometer triggered electronically by a phasic aortic blood pressure signal. Both vagus nerves were served in the cervical region and the animals were mechanically ventilated. The experimental design used employed a 3-hour infusion of test compound. Bolus doses of isoproterenol (0.5 μg/kg) were used to assess the degree of β-blockade and recovery from β-blockade after […] of the infusion. The doses were spaced at 10-minute intervals and were given before, during and following the infusion of test compounds. The infusion rate was adjusted so that at the end of the 3-hour infusion period the degree of isoproterenol inhibition averaged about 50% of control. Following termination of blocker infusion, percent recovery from β-blockade was computed and the time associated with 80% recovery estimated.
^c Time in minutes for 50% recovery from 50% blockade levels after 3
Infusions of drug. Number of experiments is equal to or greater than thre
for each compound unless noted otherwise. Tabulated data are mean values
^c The betablocking activities were evaluated Invivo in a canine
model. The betablocker was infused in the animal for 3 hours with the dos
adjusted to give approximately 50%. blockage of the Isoproternolinduced
tachycardia. The infusion was then terminated and the time required for
80% recovery of blockade was recorded as duration of action of the
compound. The amount of drug infused during the 3 hours was averaged and
expressed as potency in ug/kg/min.

[5] = target: β2 receptors, guinea pig trachea (Cavia porcellus, UniProt Q8K4Z4); assay: cell-based; conditions: Table I; guinea pig trachea, vs isoproterenol; -log KB; read-out: PA2 Trachea (converted)
Experimental: Each tissue was suspended between a fixed glass rod and a Statham Universal Transducer connected to a Beckman recorder. Atria were allowed to beat spontaneously under a loading tension of approximately 0.5 gm. Intrinsic depressant or stimulant activity was determined for each compound by progressively increasing concentrations in the tissue baths at 60-minute intervals. Tissues were not washed between increments. […] Changes in rate in response to isoproterenol, a standard β-receptor agonist, were measured in the absence and presence of test compounds. Spiral strips of guinea pig trachea were suspended under 5 gm resting tension and incubated with phentolamine, tropolone and cocaine. Active tension was generated by addition of carbachol (3.0×10^-7 M) and decreases in tension in response to isoproterenol were quantitated. Cumulative concentration-response curves were produced with isoproterenol both before and after 60-minute incubation of test compounds with atria and trachea. […] The blocking potency of test compounds was estimated by computing pA2 values (-log KB) by the method of Furchgott, the Pharmacological Differentiation of Adrenergic Receptors, Ann. […] A ratio greater than one indicates cardioselectivity. Test drugs were dissolved in distilled water and added to the bath (30 ml) in a volume of 10 or 100 μl.

Sequence of β2 receptors, guinea pig trachea (Q8K4Z4 whole entry): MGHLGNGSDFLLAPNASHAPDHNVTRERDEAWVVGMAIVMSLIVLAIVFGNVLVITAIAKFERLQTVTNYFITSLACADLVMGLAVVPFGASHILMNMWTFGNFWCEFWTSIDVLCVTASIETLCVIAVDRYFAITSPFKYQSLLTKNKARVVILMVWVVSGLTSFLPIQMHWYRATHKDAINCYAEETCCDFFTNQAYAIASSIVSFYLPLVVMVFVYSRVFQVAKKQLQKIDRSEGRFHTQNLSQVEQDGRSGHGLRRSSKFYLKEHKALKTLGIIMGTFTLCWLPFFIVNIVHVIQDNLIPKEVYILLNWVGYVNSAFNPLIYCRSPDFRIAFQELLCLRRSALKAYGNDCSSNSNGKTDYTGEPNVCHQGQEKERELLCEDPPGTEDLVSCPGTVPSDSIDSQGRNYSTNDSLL
Sequence of β1 receptors, guinea pig right atria (H0W3H1 1-470): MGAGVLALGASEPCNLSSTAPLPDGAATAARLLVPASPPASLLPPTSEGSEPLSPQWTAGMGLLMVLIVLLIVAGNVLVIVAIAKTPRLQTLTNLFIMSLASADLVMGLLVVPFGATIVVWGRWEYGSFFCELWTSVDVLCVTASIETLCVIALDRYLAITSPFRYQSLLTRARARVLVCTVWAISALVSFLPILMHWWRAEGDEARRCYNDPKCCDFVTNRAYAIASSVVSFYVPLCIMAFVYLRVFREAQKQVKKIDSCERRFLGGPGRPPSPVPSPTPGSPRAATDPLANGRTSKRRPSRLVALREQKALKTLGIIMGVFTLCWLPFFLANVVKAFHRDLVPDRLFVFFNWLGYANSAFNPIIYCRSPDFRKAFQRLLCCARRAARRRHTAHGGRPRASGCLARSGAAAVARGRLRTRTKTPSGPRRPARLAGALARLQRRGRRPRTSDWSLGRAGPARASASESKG

| SMILES | Cardioselectivity KB (Trachea)/KB (Atria) [1] | remaining at 1 h [2] [%] | remaining at 2 h [2] [%] | half-life [2] [h] | hydrolysis in liver homogenate ([2]; within 60 minutes) | Kb [3] [nM] | Recovery Time 50% [4] | Recovery Time 80% [4] | % I, percent inhibition of heart rate response to isoproterenol [4] | Kb [5] [nM] |
| --- | --- | --- | --- | --- | --- | --- | --- | --- | --- | --- |
| COC(=O)c1ccccc1OCC(O)CNCCNC(C)=O (stereo not shown) [Example I, Methyl 2-[2-Hydroxy-3-[N-2(-acetamidoethyl)amino]propoxy]benzoate] | 2 | 0 | 0 | < 1 | completely hydrolyzed | 50.1 | 8 ± 1 min | 18 ± 1 min | 54 ± 2% | 100 |
| COC(=O)c1ccccc1OCC(O)CNCCNC(=O)C(C)C (stereo not shown) [II, Methyl 2-[2-Hydroxy-3-[N-[2-(2-methylpropionamido)ethyl]amino]propoxy]benzoate] | 4 | 0 | 0 | < 1 | – | 7.94 | 7 ± 1 min | 17 ± 1 min | 59 ± 2% | 31.6 |
| COC(=O)c1ccccc1OCC(O)CNCCNC(=O)Cc1ccccc1 (stereo not shown) [III, Methyl 2-[2-Hydroxy-3-[N-[2-(phenylacetamido)ethyl]amino]propoxy]benzoate] | 4 | 0 | 0 | < 1 | – | 5.01 | 20 min and 19 min | 40 min and 45 min | 57% and 60% | 20 |
